The text below walks through data of ChEMBL document CHEMBL5053500, “Nitric Oxide Induction in Peritoneal Macrophages by a 1,2,3-Triazole Derivative Improves Its Efficacy upon Leishmania amazonensis In Vitro Infection” (J Med Chem, 2021).

Data set [1] deals with Leishmania amazonensis. Description: Antileishmanial activity against Leishmania amazonensis (MHOM/BR/76/MA-76) promastigotes assessed as reduction in parasite growth incubated for 24 hrs by MTT assay. In kind it is functional, organism-based. The note with it: MHOM/BR/76/MA-76, 24 h. A general note: Tetrazolium dyes change colour on reduction, which living cells bring about.

The nature of data set [2]: Cytotoxicity against BALB/c mouse peritoneal macrophages assessed as reduction in cell viability incubated for 24 hrs by MTT assay. The format is cell-based, Peritoneal macrophage.
A short description of data set [3]: Cytotoxicity against human CCD-1072Sk cells assessed as reduction in cell viability at <400 uM measured after 24 hrs by MTT assay. In kind it is cell-based.
Data set [4] can be described thus: Selectivity index, ratio of CC50 for cytotoxicity against BALB/c mouse peritoneal macrophages to IC50 for antileishmanial activity against Leishmania amazonensis (MHOM/BR/76/MA-76) promastigotes. The note with it: read-out: Ratio CC50/IC50. The format is toxicity.
For data set [5], the system named is Leishmania amazonensis. Nature of the data set: Antileishmanial activity against Leishmania amazonensis (MHOM/BR/76/MA-76) intracellular amastigotes infected in BALB/c mouse peritoneal macrophages assessed as reduction in parasite growth incubated for 24 hrs by Giemsa's azur-eosin-methyle blue staining based light microscopy analysis. In kind it is functional, organism-based. The note with it: MHOM/BR/76/MA-76, Peritoneal macrophage.

For data set [6], the system named is Leishmania amazonensis. Nature of the data set: Induction of morphological changes in Leishmania amazonensis (MHOM/BR/76/MA-76) promastigotes assessed as lipid inclusions at IC50 incubated for 24 hrs by transmission electron microscopy analysis. In kind it is functional, organism-based.
The test system of data set [7] is Leishmania amazonensis. Description: Induction of morphological changes in Leishmania amazonensis (MHOM/BR/76/MA-76) promastigotes assessed as formation of membrane profiles near the flagellar pocket at IC50 incubated for 24 hrs by transmission electron microscopy analysis. In kind it is functional, organism-based.
Data set [8] relates to Leishmania amazonensis. Nature of the data set: Antileishmanial activity against Leishmania amazonensis (MHOM/BR/76/MA-76) intracellular amastigotes infected in BALB/c mouse peritoneal macrophages assessed as upward shift in concentration response curves of parasite viability incubated for 24 hrs by Giemsa's azur-eosin-methyle blue staining based light microscopy analysis. The format is functional, organism-based. The note with it: Peritoneal macrophage.

Data set [9] deals with Leishmania amazonensis. Description: Antileishmanial activity against Leishmania amazonensis (MHOM/BR/76/MA-76) promastigotes assessed as upward shift in concentration response curves of parasite viability incubated for 24 hrs by MTT assay. In kind it is functional, organism-based.
The subject of data set [10] is Leishmania amazonensis. Description: Antileishmanial activity against Leishmania amazonensis (MHOM/BR/76/MA-76) intracellular amastigotes infected in BALB/c mouse peritoneal macrophages assessed as decrease in number of amastigotes per 100 cells at 40 uM incubated for 24 hrs by Giemsa's azur-eosin-methyle blue staining based light microscopy analysis. In kind it is functional, organism-based. The note with it: Peritoneal macrophage.

The test system of data set [11] is Leishmania amazonensis. Description: Induction of morphological changes in Leishmania amazonensis (MHOM/BR/76/MA-76) promastigotes assessed as formation of small vesicles surrounded by a membrane in cytoplasm at IC50 incubated for 24 hrs by transmission electron microscopy analysis. The format is functional, organism-based.
The test system of data set [12] is Leishmania amazonensis. Nature of the data set: Antileishmanial activity against Leishmania amazonensis (MHOM/BR/76/MA-76) intracellular amastigotes infected in BALB/c mouse peritoneal macrophages assessed as low amastigote mean at 40 uM incubated for 24 hrs by Giemsa's azur-eosin-methyle blue staining based light microscopy analysis. The format is functional, organism-based. The note with it: Peritoneal macrophage.

In data set [13] the test system is Leishmania amazonensis. Nature of the data set: Antileishmanial activity against Leishmania amazonensis (MHOM/BR/76/MA-76) intracellular amastigotes infected in BALB/c mouse peritoneal macrophages assessed as decrease in number of amastigotes per infected cells at up to 40 uM incubated for 24 hrs by Giemsa's azur-eosin-methyle blue staining based light microscopy analysis. The format is functional, organism-based. The note with it: Peritoneal macrophage.

Data set [14] in a line: Selectivity index, ratio of CC50 for cytotoxicity against BALB/c mouse peritoneal macrophage to IC50 for antileishmanial activity against Leishmania amazonensis (MHOM/BR/76/MA-76) intracellular amastigotes infected in BALB/c mouse peritoneal macrophages. In kind it is toxicity, cell-based. The note with it: read-out: Ratio CC50/IC50.
Data set [15] concerns Leishmania amazonensis. Description: Antileishmanial activity against Leishmania amazonensis (MHOM/BR/76/MA-76) intracellular amastigotes infected in BALB/c mouse peritoneal macrophages assessed as low amastigote mean at 5 to 40 uM incubated for 24 hrs by Giemsa's azur-eosin-methyle blue staining based light microscopy analysis. In kind it is functional, organism-based. The note with it: Peritoneal macrophage, dose 5-40 µM.

Data set [16] deals with Leishmania amazonensis. Description: Antileishmanial activity against Leishmania amazonensis (MHOM/BR/76/MA-76) intracellular amastigotes infected in BALB/c mouse peritoneal macrophages assessed as decrease in number of amastigotes per 100 cells at 10 to 40 uM incubated for 24 hrs by Giemsa's azur-eosin-methyle blue staining based light microscopy analysis. In kind it is functional, organism-based. The note with it: Peritoneal macrophage, dose 10-40 µM.

Data set [17] has as its system Leishmania amazonensis. Nature of the data set: Antileishmanial activity against Leishmania amazonensis (MHOM/BR/76/MA-76) intracellular amastigotes infected in BALB/c mouse peritoneal macrophages assessed as decrease in number of amastigotes per infected cells at 20 to 40 uM incubated for 24 hrs by Giemsa's azur-eosin-methyle blue staining based light microscopy analysis. The format is functional, organism-based. The note with it: Peritoneal macrophage, dose 20-40 µM.

Data set [18] is described as follows: Cytotoxicity against human CCD-1072Sk cells assessed as reduction in cell viability measured after 24 hrs by MTT assay. The format is cell-based.

Activity calls are given as the source filed them. The calls are words filed in the database; no cut-off is given here.

Turning to `OC(c1cn(-c2ccc(Br)cc2)nn1)c1ccccc1Br` (stereo unspecified), the IC50 (commonly the concentration that inhibits the measured activity by half) in the data set with Leishmania amazonensis [1] was over 200 µM. The CC50 (commonly the concentration at which the toxic effect on the cells reaches its halfway point) at 24 h in data set [2] is 313 µM. Also, the Activity result in data set [3] is given as “Non-Toxic”. Moreover, in data set [4], the selectivity ratio is under 1.56.

`O=[N+]([O-])c1ccccc1C(O)c1cn(-c2ccc(Br)cc2)nn1` (stereo unspecified): the IC50 with Leishmania amazonensis [1] worked out at 190 µM. For the same compound, the cytotoxic concentration (CC50) at 24 h in data set [2] is over 400 µM. Also, in data set [3], the Activity result is reported as “Non-Toxic”. Moreover, the selectivity ratio in data set [4] was over 2.1.

As for `CC(=O)c1ccc(-n2cc(C(O)c3ccccc3-c3ccccc3)nn2)cc1` (stereo unspecified), the IC50 in the data set with Leishmania amazonensis [1] was 56.6 µM. The CC50 at 24 h in [2] is 234 µM. Also, the Activity result in [3] is reported as “Non-Toxic”. Further, the selectivity ratio in data set [4] is 4.12.

For the compound `COC(=O)c1ccc(-n2cc(C(O)c3ccccc3Br)nn2)cc1` (stereo unspecified), the IC50 amounted to 37 µM in the data set with Leishmania amazonensis [5] and 27.8 µM in the data set on Leishmania amazonensis [1]. Also, the result in the data set with Leishmania amazonensis [6], with Leishmania amazonensis [7], with Leishmania amazonensis [8], with Leishmania amazonensis [9], in the data set with Leishmania amazonensis [10] and with Leishmania amazonensis [11] was Active. Also, the outcome with Leishmania amazonensis [12] was Active. Moreover, the CC50 at 24 h in data set [2] stood at 297 µM. For the same compound, the Activity result in data set [3] is “Non-Toxic”. Moreover, in the data set with Leishmania amazonensis [13], the result was inactive. For the same compound, the selectivity ratio in data set [14] turned out to be 8.03; in data set [4], 10.7.

Consider `COC(=O)c1ccc(-n2cc(C(O)c3cccnc3-c3ccccc3)nn2)cc1` (stereo unspecified), for which, in the data set with Leishmania amazonensis [1], the IC50 came to 95.9 µM. In addition, the CC50 at 24 h in data set [2] was over 400 µM. Also, the Activity entry in [3] is “Non-Toxic”. Moreover, the selectivity ratio in data set [4] was over 4.17.

As to `OC(c1ccccc1)c1cn(-c2ccc(Br)cc2)nn1` (stereo unspecified), the IC50 in the data set on Leishmania amazonensis [1] was over 200 µM. Further, in [2], the CC50 at 24 h is over 400 µM. For the same compound, in [3], the Activity entry is reported as “Non-Toxic”. In [4], the selectivity ratio was over 2.

As for `OC(c1cn(-c2ccc(Br)cc2)nn1)c1ccccc1F` (stereo unspecified), the IC50 with Leishmania amazonensis [1] was 110 µM. The cytotoxic concentration (CC50) at 24 h in [2] was over 400 µM. Further, the Activity entry in [3] is “Non-Toxic”. The selectivity ratio in data set [4] was over 3.62.

As to `CCCCCCCCCCCCCCCCOP(=O)([O-])OCC[N+](C)(C)C` [MILTEFOSINE], the IC50 in the data set with Leishmania amazonensis [5] amounted to 5.11 µM; in the data set with Leishmania amazonensis [1], 8.02 µM. Also, the outcome in the data set on Leishmania amazonensis [15], in the data set with Leishmania amazonensis [8], in the data set on Leishmania amazonensis [16], in the data set with Leishmania amazonensis [9] and with Leishmania amazonensis [17] was Active. For the same compound, the CC50 at 24 h in [2] was 169 µM; in data set [18] it was 191 µM. Moreover, the figures for the selectivity ratio in data set [14] and in [4] were 33.2 and 21.1, respectively.

Take `O=c1ccc2cc(-n3cc(C(O)c4ccccc4-c4ccccc4)nn3)ccc2o1` (stereo unspecified): the 50% inhibitory concentration (IC50) in the data set on Leishmania amazonensis [1] is over 200 µM. In addition, in data set [2], the 50% cytotoxic concentration (CC50) at 24 h was 141 µM. For the same compound, the Activity result in data set [3] was “Non-Toxic”. Moreover, the selectivity ratio in data set [4] is under 0.7.

`O=c1ccc2cc(-n3cc(C(O)c4ccccc4Br)nn3)ccc2o1` (stereo unspecified): the 50% inhibitory concentration (IC50) in the data set on Leishmania amazonensis [1] stood at 81.4 µM. The CC50 at 24 h in data set [2] stood at 348 µM. Besides, the Activity entry in [3] is recorded as “Non-Toxic”. Moreover, the selectivity ratio in data set [4] stood at 4.27.

Turning to `OC(c1ccc(Br)cc1)c1cn(-c2ccc(F)cc2)nn1` (stereo unspecified), the 50% inhibitory concentration (IC50) with Leishmania amazonensis [1] came to 45.6 µM. The 50% cytotoxic concentration (CC50) at 24 h in data set [2] was 182 µM. For the same compound, the Activity entry in [3] is on record as “Non-Toxic”. Also, the selectivity ratio in [4] worked out at 4.
